Source: PubChem BioAssay AID1963827 (Molecular Pharmacology Branch, DTP, NCI, 2024)

Tested on: 994946-033-R-J1-PDC complex spheroid viability
Assay: Anticancer human tumor 994946-033-R-J1-PDC patient-derived melanoma cell line growth inhibition [POLQ]
Conditions: for IC50: curve of first compound; for viability, T/C: stronger effect = lower value; active = viability on the fitted dose curve at most 10% of control; inactive = the rest
In short: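 Growth inhibition in 3D: complex spheroids (tumor PDC, HUVEC, MSC) treated with POLQ inhibitor combinations; where Cmax unknown, highest tested concentration 10 microM, except SN-38 at 1 microM.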

[1] = second compound 0.0316 µM, first compound 0.0316 µM
[2] = second compound 0.0316 µM, first compound 0.1 µM
[3] = second compound 0.0316 µM, first compound 0.316 µM
[4] = second compound 0.0316 µM, first compound 1 µM
[5] = second compound 0.0316 µM, first compound 3.16 µM
[6] = second compound 0.0316 µM, first compound 10 µM
[7] = second compound 0.1 µM, first compound 0.0316 µM
[8] = second compound 0.1 µM, first compound 0.1 µM
[9] = second compound 0.1 µM, first compound 0.316 µM
[10] = second compound 0.1 µM, first compound 1 µM
[11] = second compound 0.1 µM, first compound 3.16 µM
[12] = second compound 0.1 µM, first compound 10 µM
[13] = second compound 0.316 µM, first compound 0.0316 µM
[14] = second compound 0.316 µM, first compound 0.1 µM
[15] = second compound 0.316 µM, first compound 0.316 µM
[16] = second compound 0.316 µM, first compound 1 µM
[17] = second compound 0.316 µM, first compound 3.16 µM
[18] = second compound 0.316 µM, first compound 10 µM
[19] = second compound 1 µM, first compound 0.0316 µM
[20] = second compound 1 µM, first compound 0.1 µM
[21] = second compound 1 µM, first compound 0.316 µM
[22] = second compound 1 µM, first compound 1 µM
[23] = second compound 1 µM, first compound 3.16 µM
[24] = second compound 1 µM, first compound 10 µM
[25] = second compound 3.16 µM, first compound 0.0316 µM
[26] = second compound 3.16 µM, first compound 0.1 µM
[27] = second compound 3.16 µM, first compound 0.316 µM
[28] = second compound 3.16 µM, first compound 1 µM
[29] = second compound 3.16 µM, first compound 3.16 µM
[30] = second compound 3.16 µM, first compound 10 µM
[31] = second compound 10 µM, first compound 0.0316 µM
[32] = second compound 10 µM, first compound 0.1 µM
[33] = second compound 10 µM, first compound 0.316 µM
[34] = second compound 10 µM, first compound 1 µM
[35] = second compound 10 µM, first compound 3.16 µM
[36] = second compound 10 µM, first compound 10 µM
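Also: spheroids exposed to drugs for 7 days.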
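For viability, T/C in this document: 100% = DMSO vehicle treated spheroids.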

CC1COCCN1c1cc(C2(S(C)(=N)=O)CC2)nc(-c2ccnc3[nH]ccc23)n1 (stereo not drawn) + Cc1cccc(N(C)C(=O)C2C(O)CCN2c2nc(C)cc(C(F)(F)F)c2C#N)c1
inactive: viability, T/C [1] 103% | viability, T/C [2] 111% | viability, T/C [3] 112% | viability, T/C [4] 61.2% | viability, T/C [5] 59.8% | viability, T/C [6] 46.8% | viability, T/C [7] 71.6% | viability, T/C [8] 113% | viability, T/C [9] 109% | viability, T/C [10] 82.2% | viability, T/C [11] 58.8% | viability, T/C [12] 28.4% | viability, T/C [13] 110% | viability, T/C [14] 117% | viability, T/C [15] 104% | viability, T/C [16] 78.8% | viability, T/C [17] 48.8% | viability, T/C [18] 48.4% | viability, T/C [19] 101% | viability, T/C [20] 92% | viability, T/C [21] 76.2% | viability, T/C [22] 64.6% | viability, T/C [23] 36.8% | viability, T/C [24] 33.7% | viability, T/C [25] 94.5% | viability, T/C [26] 110% | viability, T/C [27] 97.5% | viability, T/C [28] 53.5% | viability, T/C [29] 53.2% | viability, T/C [30] 52.8% | viability, T/C [31] 96.5% | viability, T/C [32] 103% | viability, T/C [33] 92.2% | viability, T/C [34] 75.1% | viability, T/C [35] 64.3% | viability, T/C [36] 41.3%
6.24 µM: IC50 (second compound 10 µM)
> 10 µM: IC50 (second compound 0.0316 µM) | IC50 (second compound 3.16 µM)
4.26 µM: IC50 (second compound 0.1 µM)
4.2 µM: IC50 (second compound 0.316 µM)
1.87 µM: IC50 (second compound 1 µM)

CNCc1ccc(-c2[nH]c3cc(F)cc4c3c2CCNC4=O)cc1 + COC1C(OC(N)=O)C(O)C(Oc2ccc3c(O)c(NC(=O)c4ccc(O)c(CC=C(C)C)c4)c(=O)oc3c2C)OC1(C)C
> 10 µM: IC50 (second compound 0.0316 µM) | IC50 (second compound 0.1 µM) | IC50 (second compound 0.316 µM) | IC50 (second compound 1 µM) | IC50 (second compound 3.16 µM) | IC50 (second compound 10 µM)
inactive: viability, T/C [1] 114% | viability, T/C [2] 93.7% | viability, T/C [3] 96% | viability, T/C [4] 96.3% | viability, T/C [5] 101% | viability, T/C [6] 70.9% | viability, T/C [7] 107% | viability, T/C [8] 119% | viability, T/C [9] 83% | viability, T/C [10] 114% | viability, T/C [11] 94.4% | viability, T/C [12] 93.3% | viability, T/C [13] 117% | viability, T/C [14] 126% | viability, T/C [15] 105% | viability, T/C [16] 117% | viability, T/C [17] 107% | viability, T/C [18] 61.1% | viability, T/C [19] 107% | viability, T/C [20] 91.4% | viability, T/C [21] 88.4% | viability, T/C [22] 110% | viability, T/C [23] 109% | viability, T/C [24] 61.6% | viability, T/C [25] 92.9% | viability, T/C [26] 95.2% | viability, T/C [27] 106% | viability, T/C [28] 112% | viability, T/C [29] 99.2% | viability, T/C [30] 72.8% | viability, T/C [31] 117% | viability, T/C [32] 94.6% | viability, T/C [33] 80.3% | viability, T/C [34] 85.1% | viability, T/C [35] 94.5% | viability, T/C [36] 64.8%

O=C(c1cc(Cc2n[nH]c(=O)c3ccccc23)ccc1F)N1CCN(C(=O)C2CC2)CC1 + Nc1ccc(C#CCN(C(=O)Cc2ncc(C(F)(F)F)cc2C(F)(F)F)c2ccc(F)cc2)nn1
inactive: viability, T/C [1] 116% | viability, T/C [2] 88.8% | viability, T/C [3] 101% | viability, T/C [4] 72.6% | viability, T/C [5] 76.6% | viability, T/C [6] 37.3% | viability, T/C [7] 61.7% | viability, T/C [8] 113% | viability, T/C [9] 70.5% | viability, T/C [10] 78.6% | viability, T/C [11] 83.5% | viability, T/C [12] 30.6% | viability, T/C [13] 101% | viability, T/C [14] 84.9% | viability, T/C [15] 84% | viability, T/C [16] 55.8% | viability, T/C [17] 70.8% | viability, T/C [18] 29.6% | viability, T/C [19] 78.9% | viability, T/C [20] 111% | viability, T/C [21] 66% | viability, T/C [22] 92.8% | viability, T/C [23] 55.9% | viability, T/C [24] 42.6% | viability, T/C [25] 94.8% | viability, T/C [26] 80.3% | viability, T/C [27] 77.8% | viability, T/C [28] 58.8% | viability, T/C [29] 57.9% | viability, T/C [30] 37.1% | viability, T/C [31] 66.4% | viability, T/C [32] 87.3% | viability, T/C [33] 70.3% | viability, T/C [34] 92.3% | viability, T/C [35] 80.1% | viability, T/C [36] 36.8%
7 µM: IC50 (second compound 10 µM)
5.26 µM: IC50 (second compound 1 µM)
6.45 µM: IC50 (second compound 0.1 µM)
6.71 µM: IC50 (second compound 0.0316 µM)
4.09 µM: IC50 (second compound 0.316 µM)
3.82 µM: IC50 (second compound 3.16 µM)

O=c1[nH]cc(F)c(=O)[nH]1 + Cc1cccc(N(C)C(=O)C2C(O)CCN2c2nc(C)cc(C(F)(F)F)c2C#N)c1
> 10 µM: IC50 (second compound 1 µM)
4.63 µM: IC50 (second compound 0.0316 µM)
inactive: viability, T/C [1] 97.5% | viability, T/C [2] 91.7% | viability, T/C [3] 63.8% | viability, T/C [4] 71.5% | viability, T/C [5] 48.6% | viability, T/C [6] 45.2% | viability, T/C [7] 91.6% | viability, T/C [8] 106% | viability, T/C [9] 101% | viability, T/C [10] 69.1% | viability, T/C [11] 49.4% | viability, T/C [12] 36.3% | viability, T/C [13] 85.5% | viability, T/C [14] 78.7% | viability, T/C [15] 89.8% | viability, T/C [16] 62.4% | viability, T/C [17] 45.6% | viability, T/C [18] 44.6% | viability, T/C [19] 95% | viability, T/C [20] 63.2% | viability, T/C [21] 63% | viability, T/C [22] 56.8% | viability, T/C [23] 52.3% | viability, T/C [24] 47.8% | viability, T/C [25] 99.3% | viability, T/C [26] 95% | viability, T/C [27] 66% | viability, T/C [28] 55.2% | viability, T/C [29] 45.3% | viability, T/C [30] 47.3% | viability, T/C [31] 97.1% | viability, T/C [32] 103% | viability, T/C [33] 52.7% | viability, T/C [34] 58.5% | viability, T/C [35] 49.7% | viability, T/C [36] 43%
2.49 µM: IC50 (second compound 0.1 µM)
2.29 µM: IC50 (second compound 0.316 µM)
1.46 µM: IC50 (second compound 3.16 µM)
10 µM: IC50 (second compound 10 µM)
